Measured values from paper PMC3699191 (Journal of medicinal chemistry, 2010).

Biological target: mCB2 (membranes from HEK293 cells expressing mouse CB2) (Mus musculus, UniProt P47936)
Test: Mouse CB2 binding assay, [3H]CP-55,940 competition
Conditions: CB2 over CB1

mCB2 (membranes from HEK293 cells expressing mouse CB2), sequence (P47936 whole entry): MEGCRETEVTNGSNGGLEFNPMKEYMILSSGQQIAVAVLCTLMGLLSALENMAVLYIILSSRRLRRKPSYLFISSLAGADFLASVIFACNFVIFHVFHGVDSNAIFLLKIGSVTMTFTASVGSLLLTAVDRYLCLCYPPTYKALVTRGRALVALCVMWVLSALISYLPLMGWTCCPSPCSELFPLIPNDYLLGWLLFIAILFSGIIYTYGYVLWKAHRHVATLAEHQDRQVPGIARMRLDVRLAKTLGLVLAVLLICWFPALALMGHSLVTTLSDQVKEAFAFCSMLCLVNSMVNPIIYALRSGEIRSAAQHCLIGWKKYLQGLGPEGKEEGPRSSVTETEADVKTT

Compound: CC1(C)Oc2cc(C34CC5CC(CC(C5)O3)C4)cc(O)c2[C@@H]2C[C@H](O)CC[C@H]21 [compound 16]
- selectivity for CB2: 2 fold
